Test results published in patent publication US12007393B2, “Methods based on the detection of RAD51 foci in tumor cells” (Fundació Privada Institut D'Investigació Oncològica De Vall …, priority 2017, dated 2024).
Entries after “also recorded” stand apart in the source; their conditions may differ.

Experiments:
[1] = tested on: patient-derived tumor xenografts (PDXs) of breast, ovarian and pancreatic cancer; assay: In vivo PDX sensitivity to PARPi (antitumor activity by RECIST on % tumor volume change); design: species or system mice
Protocol: Fresh tumor samples from patients with breast or high-grade serous ovarian cancer were prospectively collected for implantation into nude mice under protocols approved by Vall Hebron's institutional review board (IRB), Institut Curie or Institut Paoli-Calmettes. Experiments were conducted following the European Union's animal care directive (2010/63/EU) and were approved by the Ethical Committee of Animal Experimentation of the Vall d'Hebron Research Institute (Barcelona, Spain) or by the Ethical Committee of Animal Experimentation CEEA-51 (Evry, France). Fresh primary or metastatic human tumors were obtained from patients at time of surgery or biopsy and immediately implanted into the mammary fat pad (surgery samples) or the lower flank (metastatic samples) of 6-week-old female athymic HsdCpb:NMRI-Foxnlnu mice (Harlan Laboratories). Animals were continuously supplemented with 1 μM 17b-estradiol (Sigma-Aldrich) in their drinking water. Upon growth of the engrafted tumors, the model was perpetuated by serial transplantation onto the lower flank. In each passage, flash-frozen and formalin-fixed paraffin embedded (FFPE) samples were taken for genotyping and histological studies.
To evaluate the sensitivity to PARP inhibition, tumor-bearing mice were equally distributed into treatment groups of 5 to 10 mice with tumors ranging 70 to 300 mm3. Olaparib 50 mg/kg or 100 mg/kg, Niraparib 75 mg/kg or 50 mg/kg, or Veliparib 100 mg/kg were administered per gavage (p.o.) daily (in 10% v/v DMSO/10% w/v Kleptose [HP-β-CD]). Tumor growth was measured with caliper bi-weekly from first day of treatment to day 21 and every 7-10 days in the acquired resistance setting. To generate PDX models with acquired resistance to PARPi, olaparib treatment was maintained for up to 150 days in olaparib-sensitive tumors until individual tumors regrew. In all experiments, mouse weight was recorded twice weekly. The tumor volume was calculated as V=4π/3/Lx12, “L” being the largest diameter and “1” the smallest. Mice were euthanized when tumors reached 1500 mm3 or in case of severe weight loss, in accordance with institutional guidelines. The antitumor activity was determined by comparing tumor volume at 21 days to its baseline: % tumor volume change=(V21 days−Vinitial)/Vinitial×100. For olaparib-sensitive PDX, the best response was defined as the minimum value of % tumor volume change sustained for at least 10 days. To classify the antitumor response, the Response Evaluation Criteria In Solid Tumors (RECIST) criteria on the % tumor volume change was followed: CR (complete response), best response<−95%; PR (partial response), −95<best response<−30%; SD (stable disease), −30%<best response<+20%, PD (progressive disease), best response>+20%.

γH2AX foci = assay: γH2AX nuclear foci by immunofluorescence in FFPE PDX tumors; assay type: in vivo, mice
Protocol: (§1) The following primary antibodies were used for immunofluorescence: rabbit anti-RAD51 (Santa Cruz Biotechnology H-92, dilution 1:250), rabbit anti-RAD51 Ab from Cell Signalling Technologies (CST #8875, dilution 1:25 from a 83 μg/ml stock), rabbit anti-RAD51 Ab from Abcam (ab-133534, dilution 1:1000), mouse anti-Geminin (NovoCastra NCL-L, 1:100 in PDX samples, 1:60 in patient samples), rabbit anti-Geminin (ProteinTech 10802-1-AP, 1:400), mouse anti-BRCA1 (Santa Cruz Biotechnology D-9, 1:50 for C-term; or Abcam MS110, 1:200 for N-term), and mouse anti-γH2AX (Millipore JBW301, 1:200). The secondary antibodies used were: goat anti-rabbit Alexa fluor 568 (Invitrogen; 1:500), goat anti-mouse Alexa fluor 488 (Invitrogen; 1:500), goat anti-mouse Alexa fluor 568 (Invitrogen; 1:500) and goat anti-rabbit Alexa fluor 488 (Invitrogen; 1:500).
(§2) Thin tissue sections were deparaffinized with xylene and hydrated with decreasing concentrations of ethanol. […]
(§3) RAD51 was quantified by scoring: a) the percentage of tumor cells with RAD51 nuclear foci, b) the percentage of γH2AX foci positive cells with RAD51 foci, or c) the percentage of geminin positive cells with RAD51 foci, as indicated in the Figures. […] Optimally, one-hundred geminin or γH2AX foci-positive cells from at least 3 different and representative areas of each sample were analyzed. […]

RAD51 foci = assay: RAD51 nuclear foci by immunofluorescence in FFPE PDX tumors; assay type: in vivo, mice
Protocol: as §1, §2, §3

SMILES: O=C(c1cc(Cc2n[nH]c(=O)c3ccccc23)ccc1F)N1CCN(C(=O)C2CC2)CC1 [olaparib]
- number of PDX models in which treatment exhibited antitumor activity as assessed by RECIST ([1]; of 44 PDX models (39 BrC, 3 HGSOC/OvC, 2 PaC), p.o. daily, CR/PR/SD): ten
- number of PDX models with complete response (CR) ([1]; of 44 PDX models, CR: best response <-95% tumor volume change): 6
- number of PDX models with progressive disease (PD), olaparib-resistant ([1]; of 44 PDX models, PD: best response >+20%): 34
- number of PDX models with partial response (PR) ([1]; of 44 PDX models, PR: -95<best response<-30%): 2
- γH2AX foci formation, percentage of tumor cells with γH2AX nuclear foci (γH2AX foci; treated vs vehicle PDX tumors, sensitive and resistant groups (FIG. 2A)): increased; also recorded: induces
- γH2AX foci formation in geminin-positive cells (γH2AX foci; treated vs vehicle, both sensitive and resistant tumors (FIG. 2B)): increased; also recorded: significantly increases
- percentage of RAD51 foci/geminin-positive cells (RAD51 score) (RAD51 foci; olaparib-treated samples from resistant PDX models (FIG. 2C)): significantly increased
- RAD51 foci formation, percentage of tumor cells with RAD51 nuclear foci (RAD51 foci; treated vs vehicle, olaparib-resistant PDX models (FIG. 2A)): increased; also recorded: only significantly induced in the olaparib resistant PDX models
